From publication PMC4447944 (The Journal of Biological Chemistry, 2015)
pIC50: −log10 of the molar value.

Columns and labels:
hH1 = hH1 (Homo sapiens, UniProt P35367); experiment: Ca Mobilization Potentiation (Eurofins-CEREP); settings: @ 10 μM
hTBK1 = target: T1, hTBK1 (Homo sapiens, UniProt Q9UHD2); experiment: KINOMEscan; assay type: binding
T1 construct: purchased DiscoverX

hGCN2(Kin.Dom.2,S808G) = target: T2, hGCN2(Kin.Dom.2,S808G) (Homo sapiens, UniProt Q9P2K8, S808G); experiment: KINOMEscan; assay type: binding
T2 construct: hGCN2(Kin.Dom.2,S808G); purchased DiscoverX

hRXRα = target: T3, hRXRα (Homo sapiens, UniProt P19793); experiment: Nuclear hormone receptor assay (Eurofins-CEREP); settings: read-out: Relative IC50
T3 construct: Eurofins-CEREP

hTYRO3 = target: T4, hTYRO3 (Homo sapiens, UniProt Q06418); experiment: KINOMEscan; assay type: binding
T4 construct: purchased DiscoverX

hMEK1 = target: T5, hMEK1 (Homo sapiens, UniProt Q02750); experiment: KINOMEscan; assay type: binding
T5 construct: purchased DiscoverX

hADRβ2 = hADRβ2 (Homo sapiens, UniProt P07550); experiment: β-arrestin Antagonist (Eurofins-CEREP); settings: read-out: % Effect, Inhibition
hFLT1 = target: T6, hFLT1 (Homo sapiens, UniProt P17948); experiment: KINOMEscan; assay type: binding
T6 construct: purchased DiscoverX

hMAP4K5 = target: T7, hMAP4K5 (Homo sapiens, UniProt Q9Y4K4); experiment: KINOMEscan; assay type: binding
T7 construct: purchased DiscoverX

hEPHB1 = target: T8, hEPHB1 (Homo sapiens, UniProt P54762); experiment: KINOMEscan; assay type: binding
T8 construct: purchased DiscoverX

SMYD2 = SMYD2 (Homo sapiens, UniProt Q9NRG4); experiment: Thermal denaturation fluorometry (differential scanning fluorometry); assay type: binding; settings: 100 μM LLY-507
Procedure: SMYD2 protein unfolding was monitored on a 384-well Roche Lightcycler480 II^TM RT-PCR machine using SYPRO® Orange as a reporter dye (Invitrogen, S6651). Excitation and emission filters were set at 465 and 580 nm, respectively; the temperature was continuously ramped from 25 to 95 °C at a rate of 0.11°C/s. The reaction mixture (6 μl/well) contained 3.9 μM SMYD2 protein and 100 μM compound in 20 mM Tris, pH 8.0, 150 mM NaCl, 10% glycerol, 2 mM tris(2-carboxyethyl)phosphine (TCEP), and 1% DMSO buffer. Triplicates were run along with protein without compound as a negative control.

hEGFR = target: T9, hEGFR (Homo sapiens, UniProt P00533); experiment: KINOMEscan; assay type: binding
T9 construct: purchased DiscoverX

hTGFBR1 = target: T10, hTGFBR1 (Homo sapiens, UniProt P36897); experiment: KINOMEscan; assay type: binding
T10 construct: purchased DiscoverX

hEGFR(T790M) = target: T11, hEGFR(T790M) (Homo sapiens, UniProt P00533, T790M); experiment: KINOMEscan; assay type: binding
T11 construct: purchased DiscoverX

[1] = target: T12, hRPS6KA4(Kin.Dom.2-C-term) (Homo sapiens, UniProt O75676); experiment: KINOMEscan; assay type: binding
T12 construct: hRPS6KA4(Kin.Dom.2-C-term); purchased DiscoverX (KINOMEscan platform)

mono-methyl-Lys370 p53 = experiment: Meso Scale Discovery sandwich ELISA mono-methyl-Lys370 p53/total p53, KYSE-150 cells stably expressing FLAG-SMYD2; assay type: cell-based; settings: Homo sapiens; KYSE-150 stably expressing SMYD2, sandwich ELISA, 24 h
Procedure: Cell lysates were subject to 10% SDS-PAGE and transferred to a PVDF membrane. Each membrane was blocked in Odyssey Blocking Buffer (LI-COR Biosciences) and incubated with monoclonal anti-p53 (D01) antibody (Abcam, ab1101) or rabbit anti-p53 Lys^370me1 antibody (a kind gift from Dr. Shelley Berger) followed by detection with IRDye®680RD goat anti-mouse IgG (LI-COR Biosciences) and IRDye800CW goat anti-rabbit IgG (LI-COR Biosciences) on the Odyssey Imager (LI-COR Biosciences). […] 4–8 h later, cells were treated with 0–25 μM compound for 15 h. […] 24 h later, cells were lysed with 200 μl of MSD Tris Lysis Buffer^TM (Meso Scale Discovery). A MULTI-ARRAY^TM 96-well plate (Meso Scale Discovery, catalog number L15XA-3) was precoated with 2 μg/ml custom-made methyl-p53 antibody (Lampire) in PBS overnight at 4 °C. 150 μl/well MSD Blocking Solution A^TM (final concentration of 3%) was added followed by shaking at room temperature for 1 h. The plate was washed three times with 1× MSD Tris Wash Buffer^TM (Meso Scale Discovery). 0.5 μg of cell lysate in 25 μl/well MSD Tris Lysis Buffer was added, followed by shaking overnight at 4 °C. […] Following a final wash three times with 1× MSD Tris Wash Buffer, 150 μl/well 1× MSD Read Buffer^TM (Meso Scale Discovery) was added, and plates were read on an MSD SECTOR^TM Imager 6000 instrument (Meso Scale Discovery).

hCHEK1 = target: T13, hCHEK1 (Homo sapiens, UniProt O14757); experiment: KINOMEscan; assay type: binding
T13 construct: purchased DiscoverX

hDDR2 = target: T14, hDDR2 (Homo sapiens, UniProt Q16832); experiment: KINOMEscan; assay type: binding
T14 construct: purchased DiscoverX (KINOMEscan platform)

hKIT(V559D,V654A) = target: T15, hKIT(V559D,V654A) (Homo sapiens, UniProt P10721, V559D/V654A); experiment: KINOMEscan; assay type: binding
T15 construct: purchased DiscoverX (KINOMEscan platform)

hMAST1 = target: T16, hMAST1 (Homo sapiens, UniProt Q9Y2H9); experiment: KINOMEscan; assay type: binding
T16 construct: purchased DiscoverX

hEPHA8 = target: T17, hEPHA8 (Homo sapiens, UniProt P29322); experiment: KINOMEscan; assay type: binding
T17 construct: purchased DiscoverX

Sequence of SMYD2 (Q9NRG4 whole entry): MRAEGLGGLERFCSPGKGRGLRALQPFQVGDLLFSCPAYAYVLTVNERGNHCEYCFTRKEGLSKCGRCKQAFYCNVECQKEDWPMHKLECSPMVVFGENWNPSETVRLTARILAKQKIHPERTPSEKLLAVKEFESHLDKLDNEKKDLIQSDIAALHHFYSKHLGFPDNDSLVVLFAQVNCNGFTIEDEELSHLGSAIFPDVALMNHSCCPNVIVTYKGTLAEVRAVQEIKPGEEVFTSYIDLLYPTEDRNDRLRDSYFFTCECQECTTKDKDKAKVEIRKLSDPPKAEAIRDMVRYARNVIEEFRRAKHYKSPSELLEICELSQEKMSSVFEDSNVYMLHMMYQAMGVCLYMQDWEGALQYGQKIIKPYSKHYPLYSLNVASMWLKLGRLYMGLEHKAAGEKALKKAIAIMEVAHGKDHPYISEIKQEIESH
Sequence of hH1 (P35367 whole entry): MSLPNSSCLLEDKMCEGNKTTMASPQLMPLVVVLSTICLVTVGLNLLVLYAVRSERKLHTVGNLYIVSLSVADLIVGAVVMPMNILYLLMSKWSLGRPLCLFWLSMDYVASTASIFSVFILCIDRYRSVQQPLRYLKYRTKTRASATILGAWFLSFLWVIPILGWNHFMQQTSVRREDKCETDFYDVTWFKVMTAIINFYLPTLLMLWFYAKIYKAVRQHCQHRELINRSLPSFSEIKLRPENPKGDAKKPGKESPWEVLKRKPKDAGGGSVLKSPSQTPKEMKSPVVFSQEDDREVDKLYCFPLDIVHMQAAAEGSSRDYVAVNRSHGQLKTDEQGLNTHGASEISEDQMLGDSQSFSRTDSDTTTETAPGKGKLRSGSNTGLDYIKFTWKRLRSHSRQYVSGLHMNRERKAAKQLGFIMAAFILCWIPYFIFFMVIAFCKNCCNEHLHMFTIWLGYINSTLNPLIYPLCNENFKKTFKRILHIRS
T8 sequence (P54762 18-984): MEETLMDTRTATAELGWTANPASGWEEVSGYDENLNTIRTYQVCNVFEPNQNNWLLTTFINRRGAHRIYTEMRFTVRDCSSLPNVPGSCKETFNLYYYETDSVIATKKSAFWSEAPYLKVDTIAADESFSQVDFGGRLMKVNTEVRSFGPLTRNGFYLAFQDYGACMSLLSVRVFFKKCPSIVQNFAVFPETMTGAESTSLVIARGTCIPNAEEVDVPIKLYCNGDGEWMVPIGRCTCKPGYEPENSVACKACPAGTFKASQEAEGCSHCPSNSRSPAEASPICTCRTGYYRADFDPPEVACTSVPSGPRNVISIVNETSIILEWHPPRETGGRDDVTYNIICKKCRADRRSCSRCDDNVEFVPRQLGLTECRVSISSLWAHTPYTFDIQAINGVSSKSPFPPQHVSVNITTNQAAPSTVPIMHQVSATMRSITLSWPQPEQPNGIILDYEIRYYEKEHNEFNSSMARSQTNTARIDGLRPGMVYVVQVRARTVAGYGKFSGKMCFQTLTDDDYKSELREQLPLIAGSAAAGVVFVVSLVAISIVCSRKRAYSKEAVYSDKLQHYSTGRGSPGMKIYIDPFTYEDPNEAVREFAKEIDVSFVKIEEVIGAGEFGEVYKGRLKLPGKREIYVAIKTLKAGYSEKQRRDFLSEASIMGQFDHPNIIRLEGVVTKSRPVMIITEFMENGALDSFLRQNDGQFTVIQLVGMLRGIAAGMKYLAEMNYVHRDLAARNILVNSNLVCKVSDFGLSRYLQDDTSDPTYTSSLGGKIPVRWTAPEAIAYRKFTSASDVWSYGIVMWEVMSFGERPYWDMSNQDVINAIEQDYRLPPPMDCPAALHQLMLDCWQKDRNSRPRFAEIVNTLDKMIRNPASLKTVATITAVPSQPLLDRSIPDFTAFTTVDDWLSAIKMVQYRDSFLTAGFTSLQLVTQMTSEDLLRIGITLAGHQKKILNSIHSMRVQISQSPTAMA
T5 sequence (Q02750 whole entry): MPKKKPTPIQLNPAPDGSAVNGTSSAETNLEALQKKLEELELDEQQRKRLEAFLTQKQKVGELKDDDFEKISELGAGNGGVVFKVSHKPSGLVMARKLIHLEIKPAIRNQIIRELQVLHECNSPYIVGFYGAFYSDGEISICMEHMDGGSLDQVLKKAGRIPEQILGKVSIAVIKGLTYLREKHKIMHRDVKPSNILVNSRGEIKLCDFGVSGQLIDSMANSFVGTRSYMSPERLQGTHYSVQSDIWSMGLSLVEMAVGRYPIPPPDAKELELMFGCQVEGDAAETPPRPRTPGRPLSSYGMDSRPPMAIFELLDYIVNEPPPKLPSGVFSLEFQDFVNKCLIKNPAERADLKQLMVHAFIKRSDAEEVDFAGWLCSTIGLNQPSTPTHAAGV
T10 sequence (P36897 34-503): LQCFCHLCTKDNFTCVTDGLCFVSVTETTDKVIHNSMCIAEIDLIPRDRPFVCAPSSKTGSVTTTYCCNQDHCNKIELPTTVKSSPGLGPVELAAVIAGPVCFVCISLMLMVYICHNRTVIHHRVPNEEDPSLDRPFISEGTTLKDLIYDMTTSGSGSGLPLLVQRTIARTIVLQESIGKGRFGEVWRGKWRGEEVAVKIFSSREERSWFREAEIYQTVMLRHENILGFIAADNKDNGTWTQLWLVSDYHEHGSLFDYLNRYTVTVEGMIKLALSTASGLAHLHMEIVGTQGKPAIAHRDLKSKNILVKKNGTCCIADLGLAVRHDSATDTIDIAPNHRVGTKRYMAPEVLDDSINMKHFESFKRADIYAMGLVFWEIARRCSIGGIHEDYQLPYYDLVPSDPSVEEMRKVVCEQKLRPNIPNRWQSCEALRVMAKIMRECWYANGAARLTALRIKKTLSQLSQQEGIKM
T6 sequence (P17948 27-1338): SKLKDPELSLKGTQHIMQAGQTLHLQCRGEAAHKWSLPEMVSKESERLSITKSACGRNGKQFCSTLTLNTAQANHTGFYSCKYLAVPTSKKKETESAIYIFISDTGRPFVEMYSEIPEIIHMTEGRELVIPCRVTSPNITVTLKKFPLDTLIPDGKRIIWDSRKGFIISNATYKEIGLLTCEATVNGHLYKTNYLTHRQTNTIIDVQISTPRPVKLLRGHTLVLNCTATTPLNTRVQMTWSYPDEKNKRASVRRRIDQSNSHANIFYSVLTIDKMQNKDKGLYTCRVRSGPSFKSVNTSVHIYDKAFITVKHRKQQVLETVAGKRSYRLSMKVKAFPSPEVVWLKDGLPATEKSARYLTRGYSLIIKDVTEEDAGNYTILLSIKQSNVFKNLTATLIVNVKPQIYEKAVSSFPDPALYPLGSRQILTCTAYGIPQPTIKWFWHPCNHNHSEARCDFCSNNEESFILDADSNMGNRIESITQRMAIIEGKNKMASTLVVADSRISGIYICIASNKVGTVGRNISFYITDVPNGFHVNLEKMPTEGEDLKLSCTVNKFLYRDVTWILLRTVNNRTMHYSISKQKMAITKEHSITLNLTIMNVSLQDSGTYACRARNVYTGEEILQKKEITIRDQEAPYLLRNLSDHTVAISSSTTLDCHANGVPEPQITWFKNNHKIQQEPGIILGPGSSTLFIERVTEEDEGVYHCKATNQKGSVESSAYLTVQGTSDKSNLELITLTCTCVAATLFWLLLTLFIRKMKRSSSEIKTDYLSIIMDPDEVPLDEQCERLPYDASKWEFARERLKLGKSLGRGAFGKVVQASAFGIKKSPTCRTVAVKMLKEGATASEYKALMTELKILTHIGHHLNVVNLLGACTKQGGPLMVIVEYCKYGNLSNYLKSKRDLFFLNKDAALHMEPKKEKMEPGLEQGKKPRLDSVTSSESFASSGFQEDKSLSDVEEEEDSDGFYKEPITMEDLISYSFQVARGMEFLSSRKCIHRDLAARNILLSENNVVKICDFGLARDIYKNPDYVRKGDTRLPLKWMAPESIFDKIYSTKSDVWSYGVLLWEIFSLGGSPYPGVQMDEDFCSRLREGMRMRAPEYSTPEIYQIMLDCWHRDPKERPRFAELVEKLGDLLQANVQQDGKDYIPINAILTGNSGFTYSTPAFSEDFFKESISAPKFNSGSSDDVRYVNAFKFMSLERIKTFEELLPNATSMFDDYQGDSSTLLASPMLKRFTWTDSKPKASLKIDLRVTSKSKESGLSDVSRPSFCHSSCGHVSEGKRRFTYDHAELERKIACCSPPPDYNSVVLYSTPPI
T12 sequence (O75676 411-674 limits assumed): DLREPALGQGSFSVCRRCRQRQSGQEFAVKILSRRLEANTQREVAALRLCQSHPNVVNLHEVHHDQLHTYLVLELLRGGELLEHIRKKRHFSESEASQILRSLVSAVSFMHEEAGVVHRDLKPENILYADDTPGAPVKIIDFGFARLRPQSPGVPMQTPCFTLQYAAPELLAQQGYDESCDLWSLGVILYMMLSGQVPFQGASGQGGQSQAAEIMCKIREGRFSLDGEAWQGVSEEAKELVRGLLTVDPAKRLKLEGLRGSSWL
Sequence of hADRβ2 (P07550 whole entry): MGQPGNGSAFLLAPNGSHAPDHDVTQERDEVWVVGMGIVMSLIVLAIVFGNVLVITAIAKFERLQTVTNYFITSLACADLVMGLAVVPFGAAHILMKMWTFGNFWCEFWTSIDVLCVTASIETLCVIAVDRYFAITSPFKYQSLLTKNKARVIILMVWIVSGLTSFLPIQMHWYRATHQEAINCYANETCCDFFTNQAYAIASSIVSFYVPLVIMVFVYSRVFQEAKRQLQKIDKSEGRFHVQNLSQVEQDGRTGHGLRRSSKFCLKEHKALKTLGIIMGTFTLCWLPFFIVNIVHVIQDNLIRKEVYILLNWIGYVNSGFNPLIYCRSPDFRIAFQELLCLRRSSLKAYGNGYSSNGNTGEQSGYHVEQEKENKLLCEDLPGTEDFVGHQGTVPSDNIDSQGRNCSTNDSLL

Which results are given for `Cc1cn(CCN2CCN(c3ccccc3-c3cc(C#N)cc(C(=O)NCCCN4CCCC4)c3)CC2)c2ccccc12` [LLY-507, 3-cyano-5-{2-[4-[2-(3-methylindol-1-yl)ethyl]piperazin-1-yl]-phenyl}-N-[(3-pyrrolidin-1-yl)propyl]benzamide]?
% Effect, Potentiation (hH1): -8.5%; pIC50 (hTBK1): < 4.70; pIC50 (hGCN2(Kin.Dom.2,S808G)): < 4.70; pIC50 (hRXRα): < 5.00; pIC50 (hTYRO3): < 4.70; pIC50 (hMEK1): < 4.70; inhibition at 10 µM (hADRβ2): -15.6%; pIC50 (hFLT1): < 4.70; pIC50 (hMAP4K5): < 4.70; pIC50 (hEPHB1): < 4.70; increase in thermal stability of SMYD2 (SMYD2): 5 °C; Tm of SMYD2 in presence of compound (SMYD2; SMYD2 alone Tm = 49 °C): 54 °C; pIC50 (hEGFR): < 4.70; pIC50 (hTGFBR1): < 4.70; pIC50 (hEGFR(T790M)): < 4.70; pIC50 [1]: < 4.70; pIC50 (mono-methyl-Lys370 p53): 6.22; pIC50 (hCHEK1): < 4.70; pIC50 (hDDR2): < 4.70; pIC50 (hKIT(V559D,V654A)): < 4.70; pIC50 (hMAST1): < 4.70; pIC50 (hEPHA8): < 4.70
